Laboratory results: patent US9284303B2, “Benzimidazole cannabinoid agonists bearing a substituted heterocyclic group” (priority 2006, dated 2016)
Like-named read-outs stand apart in the source and are kept apart here.

Assays:
[1] = biological target: T1, human CB1 (hCB1) receptor (Homo sapiens, UniProt P21554); assay: Inhibition of forskolin-activated cAMP production upon activation of hCB1 (HTRF), CHO-K1 cells; format: cell-based; details: CB1 pEC50, hCB1-CHO-K1 cells, forskolin-activated cAMP, pEC50=-log(EC50)
T1 construct: expressed in transfected cells; host or cells: CHO-K1
Protocol: (§1) Functional activity of the test compounds was assessed by measuring their potency to inhibit forskolin-activated cAMP production upon activation of the human CB1 (hCB1) or human CB2 (hCB2) receptor through homogenous time resolved fluorescence (HTRF) assays.
CHO-K1 cells stably transfected with either hCB1 or hCB2 were grown up to 80-90% confluence in T175 Falcon flasks in DMEM/NUT MIX F-12 culture medium complemented with 2% Solution A (5.10^6 IU/l penicillin G, 5 g/l streptomycin sulphate, 5.5 g/l pyruvate, 14.6 g/l L-glutamine, 1M NaOH) and 10% foetal calf serum. Before the experiments, medium was removed, cells were washed with PBS/EDTA (140 mM NaCl, 1 mM Naz-EDTA, 8 mM Na2HPO4.2H2O, 8.5 mM KH2PO4, 2.7 mM KCl, 21 mM glucose), resuspended in stimulation buffer (HBSS 1x, IBMX 1 mM, Hepes 5 mM, MgCl2 10 mM, BSA 0.1%, pH 7.4). Cells were diluted to a concentration of 8.10^5 cell/ml for hCB1 experiments and 10^6 cells/ml for hCB2 experiments. Assays were performed using the cAMP Dynamic HTRF kit (CIS bio international, France) according to the recommendations of the manufacturer.
For CB1, each well of a 96 flat bottom black polystyrene assay plate (Costar) was filled with 25 μl stimulation buffer containing 6 μM forskolin and either test compound (in 2% DMSO), 2% DMSO or 2 μM CP55490 (in 2% DMSO). Then, 25 μl of the diluted cells was added (20,000 cells/well). After 30 minutes incubation in dark at room temperature, 25 μl cAMP-XL665 and 25 μl anti-cAMP cryptate (both at a final dilution of 1/80) was added to the cells.
After equilibration of the reaction mixtures for 1 to 24 hours in dark at room temperature, fluorescence was measured at 665 nm and 620 nm using a Discovery microplate fluorescence counter (Perkin Elmer), and the signal ratio of 665 nm/620 nm was calculated. The signal ratios of the test compounds were expressed relative to the signal ratios of the DMSO control (maximal signal ratio, no inhibition of cAMP) and CP55490 or WIN55212-2 for hCB1 and hCB2, respectively (minimal signal ratio, maximal inhibition of cAMP). From the dose response curves generated for each test compound, the dose at which 50% of the maximal inhibition of cAMP level is observed (EC50, expressed in the Tables as pEC50=−log(EC50) values) and the level of inhibition reached with 10 μM of the test compound compared to CP55490 (for hCB1) or WIN55212-2 (for hCB2) was calculated.

[2] = biological target: T2, human CB2 (hCB2) receptor (Homo sapiens, UniProt P34972); assay: Inhibition of forskolin-activated cAMP production upon activation of hCB2 (HTRF), CHO-K1 cells; format: cell-based; details: for EC50: forskolin-activated cAMP, pEC50=-log(EC50); for ratio CB2 agonism over CB1 agonism: Table C-1, selectivity hCB2 over hCB1; for ratio CB2 over CB1 agonism: Table C-3, comparison of art compounds A to E with compounds of the invention
T2 construct: expressed in transfected cells; host or cells: CHO-K1
Protocol: as §1
Before the experiments, medium was removed, cells were washed with PBS/EDTA (140 mM NaCl, 1 mM Naz-EDTA, 8 mM Na2HPO4.2H2O, 8.5 mM KH2PO4, 2.7 mM KCl, 21 mM glucose), resuspended in stimulation buffer (HBSS 1x, IBMX 1 mM, Hepes 5 mM, MgCl2 10 mM, BSA 0.1%, pH 7.4). Cells were diluted to a concentration of 8.10^5 cell/ml for hCB1 experiments and 10^6 cells/ml for hCB2 experiments. Assays were performed using the cAMP Dynamic HTRF kit (CIS bio international, France) according to the recommendations of the manufacturer.
Then, 20 μl of the diluted hCB2-CHO-K1 cells was added (20,000 cells/well). After 30 minutes incubation in dark at room temperature, 10 μl cAMP-XL665 and 10 μl anti-cAMP cryptate (both at a final dilution of 1/100) was added to the cells.

[3] = hCB2-CHO-K1 cells, read-out: CB2 pEC50 (converted)

T1 sequence (P21554 whole entry): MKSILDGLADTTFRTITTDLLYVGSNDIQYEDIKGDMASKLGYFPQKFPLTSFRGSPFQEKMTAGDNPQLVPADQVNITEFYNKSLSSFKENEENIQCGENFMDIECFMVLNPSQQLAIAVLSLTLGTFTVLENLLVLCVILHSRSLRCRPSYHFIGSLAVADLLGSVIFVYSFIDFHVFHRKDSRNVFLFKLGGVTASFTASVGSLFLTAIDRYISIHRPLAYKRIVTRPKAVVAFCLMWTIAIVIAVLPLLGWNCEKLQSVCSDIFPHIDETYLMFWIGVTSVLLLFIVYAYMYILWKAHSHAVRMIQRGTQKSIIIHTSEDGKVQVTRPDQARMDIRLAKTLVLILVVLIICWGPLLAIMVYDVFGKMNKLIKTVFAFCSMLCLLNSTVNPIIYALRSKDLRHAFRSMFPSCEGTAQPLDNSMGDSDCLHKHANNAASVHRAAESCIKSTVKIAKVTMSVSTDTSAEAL
T2 sequence (P34972 whole entry): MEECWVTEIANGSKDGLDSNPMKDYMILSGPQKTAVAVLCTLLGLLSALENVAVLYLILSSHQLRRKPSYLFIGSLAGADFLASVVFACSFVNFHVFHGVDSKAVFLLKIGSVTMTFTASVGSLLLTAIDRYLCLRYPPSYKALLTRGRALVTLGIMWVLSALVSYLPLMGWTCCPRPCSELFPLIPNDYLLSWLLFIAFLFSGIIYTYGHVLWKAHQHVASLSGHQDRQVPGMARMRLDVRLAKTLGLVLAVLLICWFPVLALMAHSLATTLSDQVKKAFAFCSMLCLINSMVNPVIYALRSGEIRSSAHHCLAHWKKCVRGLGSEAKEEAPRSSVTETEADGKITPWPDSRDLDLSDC

| SMILES | EC50 [1] [nM] | EC50 [2, 3] [nM] | ratio CB2 agonism over CB1 agonism [2] | also measured |
| --- | --- | --- | --- | --- |
| CC(C)(C)c1nc2cc([S+]([O-])c3cc[n+]([O-])cc3)ccc2n1CC1CCOCC1 (centres unmarked) [Co. No. 2] | > 10000 | 38 | – | – |
| CCOc1cc(S(=O)(=O)c2ccc3c(c2)nc(C(C)(C)C)n3CC2CCOCC2)ccn1 [Co. No. 9] | 1410 | 0.331 | 4266 | ratio CB2 over CB1 agonism [2]: 4266 |
| Cc1cc(S(=O)(=O)c2ccc3c(c2)nc(C(C)(C)C)n3CC2CCOCC2)ccn1 [Co. No. 13] | 2040 | 1.26 | 1622 | – |
| CC(C)(C)c1nc2cc(S(=O)(=O)c3ccnc(OC(F)F)c3)ccc2n1CC1CCOCC1 [Co. No. 14] | 3800 | 0.776 | 4898 | ratio CB2 over CB1 agonism [2]: 4898 |
| Cc1noc(C)c1S(=O)(=O)c1ccc2c(c1)nc(C(C)(C)C)n2CC1CCOCC1 [Co. No. 15] | 575 | 1.05 | 556 | – |
| CC(C)(C)c1nc2cc(S(=O)(=O)c3ccnc(F)c3)ccc2n1CC1CCOCC1 [Co. No. 25] | 407 | 0.813 | 495 | ratio CB2 over CB1 agonism [2]: 495 |
| CCC(C)(C)c1nc2cc(S(=O)(=O)c3ccc(OC)nn3)ccc2n1CC1CCC1 [Co. No. 26] | 537 | 0.794 | 676 | – |
| CC(C)(C)c1nc2cc([S+]([O-])c3ccc(Cl)nn3)ccc2n1CC1CCOCC1 (centres unmarked) [Co. No. 31] | 427 | 1.2 | 353 | – |
| CC(=O)c1ccc([S+]([O-])c2ccc3c(c2)nc(C(C)(C)C)n3CC2CCOCC2)nc1 (centres unmarked) [Co. No. 32] | 7590 | 2.57 | 2951 | – |
| CC(C)(C)c1nc2cc(S(=O)(=O)c3ccc(C(N)=O)cn3)ccc2n1CC1CCOCC1 [Co. No. 33] | 5750 | 3.09 | 1884 | – |
| CC(C)(C)c1nc2cc(S(=O)(=O)c3ccc[n+]([O-])c3)ccc2n1CC1CCOCC1 [Co. No. 34] | 7410 | – | 4732 | EC50 ([2]; CB2 pEC50, hCB2-CHO-K1 cells): 1.58 nM |
| COC(=O)c1ccc(S(=O)(=O)c2ccc3c(c2)nc(C(C)(C)C)n3CC2CCCCC2)nc1 [Co. No. 35] | 32.4 | 0.407 | 79 | – |
| CC(C)(C)c1nc2cc(S(=O)(=O)c3ccc(C(=O)N4CCCC4)cn3)ccc2n1CC1CCCCC1 [Co. No. 38] | > 10000 | 2.75 | >3631 | – |
| CC(C)(C)c1nc2cc(S(=O)(=O)c3ccc(O)nc3)ccc2n1CC1CCCCC1 [Co. No. 39] | 2040 | 1.7 | 1216 | – |
| CC(C)(C)c1nc2cc(S(=O)(=O)c3ccc(C(=O)O)cn3)ccc2n1CC1CCCCC1 [Co. No. 46] | 3890 | 1.05 | 3758 | – |
| CC(C)(C)c1nc2cc(S(=O)(=O)c3ccc(S(N)(=O)=O)s3)ccc2n1CC1CCOCC1 [Co. No. 47] | 1480 | 1.7 | 871 | – |
| COc1ccc(S(=O)(=O)c2ccc3c(c2)nc(C(C)(C)C)n3CC2CCOCC2)cn1 [Co. No. 54] | 123 | 0.933 | – | ratio CB2 agonism over CB1 agonism ([2]; listed as 54): 133 |
| CC(C)(C)c1nc2cc(S(=O)(=O)c3ccc(S(C)(=O)=O)s3)ccc2n1CC1CCOCC1 [Co. No. 58] | 1820 | 0.832 | – | ratio CB2 agonism over CB1 agonism ([2]; listed as 58): 2188 |
| CC(C)(C)c1nc2cc(S(=O)(=O)c3ncc(C(F)(F)F)cc3Cl)ccc2n1CC1CCOCC1 [Co. No. 61] | 151 | 1.12 | 135 | – |

| SMILES | EC50 [1] [nM] | EC50 [2, 3] [nM] | ratio CB2 agonism over CB1 agonism [2] | also measured |
| --- | --- | --- | --- | --- |
| CC(C)(C)c1nc2cc(S(=O)(=O)c3sc(S(C)(=O)=O)cc3Br)ccc2n1CC1CCOCC1 [Co. No. 63] | 2820 | 0.977 | – | ratio CB2 agonism over CB1 agonism ([2]; listed as 63): 2818 |
| CC(C)(C)c1nc2cc(S(=O)(=O)c3sc(S(C)(=O)=O)cc3Br)ccc2n1CC1CCOCC1 [Co. No. 64] | 1860 | – | – | EC50 ([2]; CB2 pEC50, hCB2-CHO-K1 cells): 0.479 nM; ratio CB2 agonism over CB1 agonism ([2]; listed as 64): 3920 |
| COc1cc(S(=O)(=O)c2ccc3c(c2)nc(C(C)(C)C)n3CC2CCOCC2)ccn1 [Co. No. 70] | 1410 | 0.55 | 2570 | – |
| CC(C)(C)c1nc2cc(S(=O)(=O)c3ccc(C(=O)N4CCCC4)o3)ccc2n1CC1CCOCC1 [Co. No. 74] | 2090 | 3.16 | 668 | – |
| CC(C)(C)c1nc2cc(S(=O)(=O)c3ncc(S(C)(=O)=O)cc3Br)ccc2n1CC1CCOCC1 [Co. No. 76] | > 10000 | 12 | >832 | – |
| CC(C)(C)c1nc2cc(S(=O)(=O)c3cc(S(C)(=O)=O)cnc3O)ccc2n1CC1CCOCC1 [Co. No. 77] | 2570 | 1.95 | 1303 | – |
| COc1ncc(S(C)(=O)=O)cc1S(=O)(=O)c1ccc2c(c1)nc(C(C)(C)C)n2CC1CCOCC1 [Co. No. 78] | > 10000 | 7.24 | >1380 | – |
| CC(C)(C)c1nc2cc(S(=O)(=O)c3ccn(C(F)F)c(=O)c3)ccc2n1CC1CCOCC1 [Co. No. 83] | 407 | 2 | 209 | – |
| CC(C)(C)c1nc2cc([S+]([O-])c3cc[n+]([O-])cc3Br)ccc2n1CC1CCOCC1 (centres unmarked) [Co. No. 86] | > 10000 | 12 | – | – |
| CC(C)(C)c1nc2cc(S(=O)(=O)c3ccnc(C#N)c3)ccc2n1CC1CCOCC1 [Co. No. 93] | > 10000 | – | – | EC50 ([2]; CB2 pEC50, hCB2-CHO-K1 cells): 1.48 nM; ratio CB2 agonism over CB1 agonism ([2]; listed as 93): >6761 |
| CC(C)(C)c1nc2cc([S+]([O-])c3cc[n+]([O-])cc3C(F)(F)F)ccc2n1CC1CCOCC1 (centres unmarked) [Co. No. 95] | > 10000 | 5.75 | – | – |
| CC(C)(C)c1nc2cc(S(=O)(=O)c3ccc(OCC(F)(F)F)nc3)ccc2n1CC1CCOCC1 [Co. No. 108] | > 10000 | 2.57 | >3890 | – |
| Cc1cccc(S(=O)(=O)c2ccc3c(c2)nc(C(C)(C)C)n3CC2CCOCC2)n1 [Co. No. 109] | 263 | 0.813 | 324 | – |
| CC(C)(C)c1nc2cc(S(=O)(=O)c3ccncc3)ccc2n1CC1CCOCC1 [Co. No. A, reference compound] | – | – | – | ratio CB2 over CB1 agonism [2]: 215 |
| CC(C)(C)c1nc2cc(S(=O)(=O)c3cccnc3)ccc2n1CC1CCOCC1 [Co. No. B, reference compound] | – | – | – | ratio CB2 over CB1 agonism [2]: 30 |
| CC(C)(C)c1nc2cc(S(=O)(=O)c3ccccn3)ccc2n1CC1CCOCC1 [Co. No. C, reference compound] | – | – | – | ratio CB2 over CB1 agonism [2]: 36 |
| CC(C)(C)c1nc2cc(S(=O)(=O)c3ccoc3)ccc2n1CC1CCOCC1 [Co. No. D, reference compound] | – | – | – | ratio CB2 over CB1 agonism [2]: 26 |
| CC(C)(C)Cc1nc2cc(S(=O)(=O)c3ccncc3)ccc2n1CC1CCOCC1 [Co. No. E, reference compound] | – | – | – | ratio CB2 over CB1 agonism [2]: 219 |
